Results on 42 compounds are retold here after patent US10858335B2 (Rigel Pharmaceuticals, Inc., priority 2014, dated 2020).

The subject of one experiment is GDF8 signaling (p-SMAD-3 (Ser423/425)). In words: AlphaScreen SureFire SMAD3 (p-Ser423/425) assay, GDF8-stimulated cells (GDF pSMAD). In kind it is cell-based. The following applies: Mus musculus, MPC-11, GDF8-stimulated pSMAD3, MPC11; tested as the salt form given; read-out: GDF pSMAD (MPC11) (μM), inhibition of GDF8 signaling.
For `Nc1ncnc2ccc(-c3cccnc3-c3cccc(OC4COC4)c3)cc12` [compound 1030, 6-(2-(3-(oxetan-3-yloxy)phenyl)pyridin-3-yl)quinazolin-4-amine], the IC50 stood at 1.14 µM.

In the case of `Cc1cc(F)c(C(F)F)cc1-c1ncccc1-c1ccc2ncnc(N)c2c1` [compound 1025, 6-(2-(5-(difluoromethyl)-4-fluoro-2-methylphenyl)pyridin-3-yl)quinazolin-4-amine], the IC50 stood at 0.958 µM.

Staying with this experiment, now noted: Mus musculus, MPC-11, MPC11; GDF8-stimulated; p-SMAD3 AlphaScreen; read-out: GDF pSMAD (MPC11) (inhibition of GDF8 signaling).
In the case of `Cc1cc(-c2ncccc2-c2ccc3ncnc(NCc4ccncc4)c3c2)ccc1F` [compound 415, 6-(2-(4-Fluoro-3-methylphenyl)pyridin-3-yl)-N-(pyridin-4-ylmethyl)quinazolin-4-amine], the IC50 was 11.8 µM.

For the compound `Cc1cccc(-c2ncccc2-c2ccc3ncc(C)n3c2)c1` [compound 528, 3-Methyl-6-(2-(m-Tolyl)pyridin-3-yl)imidazo[1,2-a]pyridine], the IC50 turned out to be 0.175 µM.

Regarding `O=c1cnc2ccc(-c3cccnc3-c3cc(Cl)ccc3F)cc2[nH]1` [compound 892, 7-(2-(5-Chloro-2-fluorophenyl)pyridin-3-yl)quinoxalin-2(1H)-one], the IC50 was 0.426 µM.

With `Cc1c(-c2cccnc2-c2ccc(F)c(Cl)c2)ccc2ncnn12` [compound 810, 6-(2-(3-Chloro-4-fluorophenyl)pyridin-3-yl)-5-methyl-[1,2,4]triazolo[1,5-a]pyridine], the IC50 is 5.78 µM.

Consider `Nc1ncnc2ccc(-c3cccnc3-c3cc(Cl)ccc3F)cc12` [compound 449, 6-(2-(5-Chloro-2-fluorophenyl)pyridin-3-yl)quinazolin-4-amine], for which the IC50 turned out to be 0.0686 µM.

As for `Cc1cc(-c2ncccc2-c2ccc3cnc(C(=O)NCCN4CCOCC4)n3c2)ccc1F` [compound 271, 6-(2-(4-Fluoro-3-methylphenyl)pyridin-3-yl)-N-(2-morpholinoethyl)imidazo[1,5-a]pyridine-3-carboxamide], the IC50 amounted to 4.44 µM.

For the compound `N#Cc1cnc2ccc(-c3cccnc3-c3cccc(Cl)c3)nn12` [compound 949, 6-(2-(3-Chlorophenyl)pyridin-3-yl)imidazo[1,2-b]pyridazine-3-carbonitrile], the IC50 stood at 0.375 µM.

Turning to `Nc1noc2ccc(-c3cccnc3-c3cccc(Cl)c3)cc12` [compound 799, 5-(2-(3-Chlorophenyl)pyridin-3-yl)benzo[d]isoxazol-3-amine], the IC50 was 14.6 µM.

`Cc1cc(-c2ncccc2-c2ccc3ncc(C(=O)Nc4cccc(C(N)=O)c4)n3c2)ccc1F` [compound 619, N-(3-Carbamoylphenyl)-6-(2-(4-fluoro-3-methylphenyl)pyridin-3-yl)imidazo[1,2-a]pyridine-3-carboxamide]: the IC50 turned out to be 0.544 µM.

Turning to `c1cc(-c2ncccc2-c2ccc3ncncc3c2)cc(C2CC2)c1` [compound 365, 6-(2-(3-Cyclopropylphenyl)pyridin-3-yl)quinazoline], the IC50 was determined as 0.165 µM.

`Fc1cc(F)c(-c2ncccc2-c2ccn3ncnc3c2)cc1Cl` [compound 735, 7-(2-(5-Chloro-2,4-difluorophenyl)pyridin-3-yl)-[1,2,4]triazolo[1,5-a]pyridine]: the IC50 was found to be 0.676 µM.

For the compound `Fc1ccc(-c2ncccc2-c2ccc3[nH]ncc3c2)cc1` [Compound 66, 5-[2-(4-Fluorophenyl)pyridin-3-yl]-1H-indazole], the IC50 stood at 1.78 µM.

`Clc1cccc(-c2ncccc2-c2ccn3ncnc3c2)c1` [compound 734, 7-(2-(3-Chlorophenyl)pyridin-3-yl)-[1,2,4]triazolo[1,5-a]pyridine]: the IC50 worked out at 0.694 µM.

As to `Nc1noc2cc(-c3cccnc3-c3cccc(Cl)c3)ccc12` [compound 798, 6-(2-(3-Chlorophenyl)pyridin-3-yl)benzo[d]isoxazol-3-amine], the IC50 worked out at 2.62 µM.

Take `N#Cc1cccc(-c2ncccc2-c2ccc3ncc(C#N)n3c2)c1` [compound 627, 6-(2-(3-Cyanophenyl)pyridin-3-yl)imidazo[1,2-a]pyridine-3-carbonitrile]: the IC50 came out at 1.26 µM.

Turning to `FC(F)(F)c1cccc(-c2ncccc2-c2ccc3ncccc3n2)c1` [compound 538, 2-(2-(3-(Trifluoromethyl)phenyl)pyridin-3-yl)-1,5-naphthyridine], the IC50 turned out to be 0.474 µM.

With `COc1cc(-c2cnc3ccc(-c4cccnc4-c4cccc(C)c4)cn23)cc(OC)c1OC` [compound 578, 6-(2-(m-Tolyl)pyridin-3-yl)-3-(3,4,5-trimethoxyphenyl)imidazo[1,2-a]pyridine], the IC50 was determined as 2.23 µM.

For `Cc1cccc(-c2ncccc2-c2ccc3ncsc3c2)c1` [Compound 160, 6-(2-m-Tolylpyridin-3-yl)benzo[d]thiazole], the IC50 came to 0.0843 µM.

For `CNC(=O)c1cnc2ccc(-c3cccnc3-c3ccc(F)c(C)c3)cn12` [compound 584, 6-(2-(4-Fluoro-3-methylphenyl)pyridin-3-yl)-N-methylimidazo[1,2-a]pyridine-3-carboxamide], the IC50 came out at 0.0962 µM.

With `CCOCCCn1cnc2ccc(-c3cccnc3-c3ccc(F)c(C)c3)cc21` [Compound 42, 1-(3-Ethoxypropyl)-6-(2-(4-fluoro-3-methylphenyl)pyridin-3-yl)-1H-benzo[d]imidazole], the IC50 was 10.5 µM.

As to `CC(C)Oc1cccc(-c2ncccc2-c2ccc3ncnc(N)c3c2)c1` [compound 480, 6-(2-(3-isopropoxyphenyl)pyridin-3-yl)quinazolin-4-amine], the IC50 amounted to 1.21 µM.

As to `NC(=O)c1ccnc2ccc(-c3cccnc3-c3cc(Cl)ccc3F)cc12` [compound 849, 6-(2-(5-Chloro-2-fluorophenyl)pyridin-3-yl)quinoline-4-carboxamide], the IC50 is 18.1 µM.

For `Cn1cnc2ccc(-c3cccnc3-c3cccc(C4CC4)c3)cc21` [Compound 200, 6-(2-(3-Cyclopropylphenyl)pyridin-3-yl)-1-methyl-1H-benzo[d]imidazole], the IC50 was 0.26 µM.

Consider `Cc1cc(-c2ncccc2-c2ccc3ncnc(OCCCN4CCN(C)CC4)c3c2)ccc1F` [compound 434, 6-(2-(4-Fluoro-3-methylphenyl)pyridin-3-yl)-4-(3-(4-methylpiperazin-1-yl)propoxy)quinazoline], for which the IC50 is 1.49 µM.

As for `Cc1cc(-c2ncc(-c3cn[nH]c3)cc2-c2ccc3ncsc3c2)ccc1F` [compound 345, 6-(2-(4-Fluoro-3-methylphenyl)-5-(1H-pyrazol-4-yl)pyridin-3-yl)benzo[d]thiazole], the IC50 is 4.83 µM.

On to `Cc1cc(-c2ncccc2-c2ccc3ncc(C(=O)NCCCn4ccnc4)n3c2)ccc1F` [compound 653, N-(3-(1H-Imidazol-1-yl)propyl)-6-(2-(4-fluoro-3-methylphenyl)pyridin-3-yl)imidazo[1,2-a]pyridine-3-carboxamide], for which the IC50 came out at 1.04 µM.

In the case of `Cc1cc(C)cc(-c2ncccc2-c2ccc3[nH]ncc3c2)c1` [Compound 71, 5-[2-(3,5-Dimethylphenyl)pyridin-3-yl]-1H-indazole], the IC50 was determined as 7.01 µM.

For `[2H]C([2H])([2H])c1cccc(-c2ncccc2-c2ccc3nccnc3c2)c1` [compound 605, 6-(2-(3-(Methyl-d3)phenyl)pyridin-3-yl)quinoxaline], the IC50 amounted to 7.94 µM.

In the case of `COc1ccc(Nc2ncnc3ccc(-c4cccnc4-c4ccc(F)c(C)c4)cc23)cc1` [compound 407, 6-(2-(4-Fluoro-3-methylphenyl)pyridin-3-yl)-N-(4-methoxyphenyl)quinazolin-4-amine], the IC50 came out at 2.47 µM.

Turning to `Fc1ccc(-c2ncccc2-c2ccc3ncnn3c2)cc1C1CC1` [compound 217, 6-(2-(3-Cyclopropyl-4-fluorophenyl)pyridin-3-yl)-[1,2,4]triazolo[1,5-a]pyridine], the IC50 was found to be 0.841 µM.

As to `FC(F)Oc1cccc(-c2ncccc2-c2ccn3ncnc3c2)c1` [compound 883, 7-(2-(3-(Difluoromethoxy)phenyl)pyridin-3-yl)-[1,2,4]triazolo[1,5-a]pyridine], the IC50 came out at 0.512 µM.

Regarding `COc1cc(NC(=O)n2ncc3cc(-c4cccnc4-c4ccc(F)c(C)c4)ccc32)cc(OC)c1OC` [compound 630, 5-(2-(4-Fluoro-3-methylphenyl)pyridin-3-yl)-N-(3,4,5-trimethoxyphenyl)-1H-indazole-1-carboxamide], the IC50 stood at 4.15 µM.

As to `Cc1cc(-c2ncccc2-c2ccc3ncnc(N)c3c2)ccc1F` [compound 392, 6-(2-(4-Fluoro-3-methylphenyl)pyridin-3-yl)quinazolin-4-amine], the IC50 was found to be 0.127 µM.

Consider `Cc1ccc(C(F)(F)F)cc1-c1ncccc1-c1ccn2ncnc2c1` [compound 878, 7-(2-(2-Methyl-5-(trifluoromethyl)phenyl)pyridin-3-yl)-[1,2,4]triazolo[1,5-a]pyridine], for which the IC50 was determined as 10.2 µM.

For `Cc1cnc(-c2ccc(F)c(C)c2)c(-c2ccc3[nH]ncc3c2)c1` [Compound 11, 5-(2-(4-Fluoro-3-methylphenyl)-5-methylpyridin-3-yl)-1H-indazole], the IC50 amounted to 0.595 µM.

On to `COc1cc(NC(=O)c2cnc3ccc(-c4cccnc4-c4cccc(C(F)(F)F)c4)cn23)cc(OC)c1OC` [compound 576, 6-(2-(3-(Trifluoromethyl)phenyl)pyridin-3-yl)-N-(3,4,5-trimethoxyphenyl)imidazo[1,2-a]pyridine-3-carboxamide], for which the IC50 was 3.69 µM.

Regarding `Cc1cc(-c2ncc(NC(=O)c3ccncc3)cc2-c2ccc3ncsc3c2)ccc1F` [compound 314, N-(5-(Benzo[d]thiazol-6-yl)-6-(4-fluoro-3-methylphenyl)pyridin-3-yl)isonicotinamide], the IC50 was 5.34 µM.

`Cc1cccc(-c2ncccc2-c2ccn3ncnc3c2)c1` [compound 732, 7-(2-(m-Tolyl)pyridin-3-yl)-[1,2,4]triazolo[1,5-a]pyridine]: the IC50 was 0.258 µM.

Take `Fc1ccc(-c2ncccc2-c2ccc3nccn3n2)cc1Cl` [compound 935, 6-(2-(3-Chloro-4-fluorophenyl)pyridin-3-yl)imidazo[1,2-b]pyridazine]: the IC50 was 0.192 µM.

For the compound `Cn1cnc2ccc(-c3cccnc3-c3cccc(Cl)c3)cc2c1=O` [compound 391, 6-(2-(3-Chlorophenyl)pyridin-3-yl)-3-methylquinazolin-4(3H)-one], the IC50 amounted to 0.228 µM.
